# Reference: PMC9412104, “Biochemical and Structural Insights on the Poplar Tau Glutathione Transferase GSTU19 and 20 Paralogs Binding Flavonoids” (Frontiers in Molecular Biosciences, 2022)
# Like-named read-outs stand apart in the source and are kept apart here.
# Tests used:
# PtGSTU19Y160A [1] = target: T1, PtGSTU19Y160A (Populus trichocarpa, UniProt B9HKX9, Y160A); test: GSH-conjugation activity toward model substrates, variant; assay type: biochemical; conditions: PtGSTU19 Y160A, fixed saturating GSH, mean ± S.D.; for k cat: n = 3; for Km: n = 3, read-out: apparent KM
# T1 sequence (B9HKX9 2-219 Y160A): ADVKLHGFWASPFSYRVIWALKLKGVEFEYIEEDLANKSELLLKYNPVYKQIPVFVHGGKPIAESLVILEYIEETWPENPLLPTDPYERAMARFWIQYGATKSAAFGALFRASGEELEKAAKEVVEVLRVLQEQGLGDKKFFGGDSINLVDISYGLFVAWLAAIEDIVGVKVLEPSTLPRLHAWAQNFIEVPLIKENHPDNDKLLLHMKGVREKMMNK
# Description: (§2) Peroxidase activity toward hydroperoxides was measured using an NADPH coupled spectrophotometric assay ([Pégeot et al., 2014]).
# (§3) The measured velocities were corrected by subtracting the rate of the spontaneous nonenzymatic reaction, and three independent experiments were performed at each substrate concentration.
# PtGSTU19Y160C [2] = target: T2, PtGSTU19Y160C (Populus trichocarpa, UniProt B9HKX9, Y160C); test: as above; assay type: biochemical; conditions: PtGSTU19 Y160C, fixed saturating GSH, mean ± S.D.; for k cat: n = 3; for Km: n = 3, read-out: apparent KM
# T2 sequence (B9HKX9 2-219 Y160C): as the sequence (B9HKX9 2-219 Y160A) above, with A159C counted along it
# Description: as §2, §3
# PtGSTU19Y160F [3] = target: T3, PtGSTU19Y160F (Populus trichocarpa, UniProt B9HKX9, Y160F); test: as above; assay type: biochemical; conditions: for k cat / Km: PtGSTU19 Y160F, GSH-conjugation, fixed saturating GSH, mean ± S.D., n = 3; for Km: read-out: apparent KM
# T3 sequence (B9HKX9 2-219 Y160F): as the sequence (B9HKX9 2-219 Y160A) above, with A159F counted along it
# Description: as §2, §3
# PtGSTU20C160Y [4] = target: T4, PtGSTU20C160Y (Populus trichocarpa, UniProt D2X9R3, C160Y); test: as above; assay type: biochemical; conditions: PtGSTU19 C160Y in Table S4, fixed saturating GSH, mean ± S.D.; for k cat: n = 3; for Km: n = 3, read-out: apparent KM
# T4 sequence (D2X9R3 2-219 C160Y): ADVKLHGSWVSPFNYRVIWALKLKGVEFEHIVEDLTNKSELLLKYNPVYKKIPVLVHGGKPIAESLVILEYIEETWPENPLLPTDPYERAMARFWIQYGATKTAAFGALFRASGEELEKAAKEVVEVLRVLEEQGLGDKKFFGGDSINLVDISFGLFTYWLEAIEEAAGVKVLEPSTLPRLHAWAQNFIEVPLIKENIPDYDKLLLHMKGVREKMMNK
# Description: as §2, §3
# PtGSTU19 [5] = target: T5, PtGSTU19 (Populus trichocarpa, UniProt B9HKX9); test: GSH-conjugation activity toward model substrates; conditions: for Catalytic efficiency: PtGSTU19
# T5 sequence (B9HKX9 entry or part of it): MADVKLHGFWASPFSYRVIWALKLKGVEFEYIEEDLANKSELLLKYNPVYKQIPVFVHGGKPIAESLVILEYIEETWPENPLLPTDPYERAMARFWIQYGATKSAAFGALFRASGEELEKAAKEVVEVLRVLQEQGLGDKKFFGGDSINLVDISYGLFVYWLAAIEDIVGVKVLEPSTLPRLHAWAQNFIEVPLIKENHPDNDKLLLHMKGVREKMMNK
# PtGSTU20 [6] = target: T6, PtGSTU20 (Populus trichocarpa, UniProt D2X9R3); test: GSH-conjugation activity toward model substrates
# T6 sequence (D2X9R3 entry or part of it): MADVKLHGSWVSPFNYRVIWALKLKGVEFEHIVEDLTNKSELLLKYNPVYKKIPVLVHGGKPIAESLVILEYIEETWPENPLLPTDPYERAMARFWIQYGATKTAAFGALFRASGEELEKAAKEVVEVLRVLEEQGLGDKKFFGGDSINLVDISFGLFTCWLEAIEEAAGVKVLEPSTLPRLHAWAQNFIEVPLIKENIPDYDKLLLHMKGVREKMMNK
# PtGSTU19 [7] = target: T5, PtGSTU19; test: Competition (inhibition) assay of GSH-conjugation with PITC as substrate; assay type: biochemical
# Description: (§4) The measured velocities were corrected by subtracting the rate of the spontaneous nonenzymatic reaction, and three independent experiments were performed at each substrate concentration. The kinetic parameters (k cat and apparent K m) and the inhibition constants (K i) were, respectively, obtained by fitting the data to the nonlinear regression Michaelis–Menten model (kinetic assays) and to the mixed inhibition model (inhibition assays) in GraphPad Prism 8 software ([Copeland, 2013]).
# PtGSTU20 [8] = target: T6, PtGSTU20; test: as above; assay type: biochemical
# Description: as §4
# PtGSTU19 [9] = target: T5, PtGSTU19; test: Thermal shift assay (SYPRO orange); assay type: binding
# Description: (§1) Assays were performed in a mixture (final volume of 25 µL) containing 30 mM Tris-HCl pH 8.0, 100 µM of chemical compounds (diluted in 8% DMSO) originating from a chemical library (Supplementary Tables S2, S3), 20 µM of PtGSTU19 or 20, and 5X SYPRO orange. […] The denaturation temperature, which corresponds to the temperature at which 50% of the total fluorescence is measured, was determined by the nonlinear regression Boltzmann sigmoidal model in GraphPad Prism 8 software for data obtained in the presence of potential ligands. This temperature was compared with a reference assay in which organic compounds were replaced by an equivalent DMSO concentration.
# PtGSTU20 [10] = target: T6, PtGSTU20; test: Thermal shift assay (SYPRO orange); assay type: binding
# Description: as §1
# PtGSTU19 [11] = target: T5, PtGSTU19; test: Peroxidase activity, NADPH coupled spectrophotometric assay; assay type: biochemical; conditions: for Peroxidase activity (active on the peroxide): enzyme concentration increased up to 10 µM
# Description: as §2, §4
# PtGSTU20 [12] = target: T6, PtGSTU20; test: as above; assay type: biochemical; conditions: for Peroxidase activity (active on the peroxide): enzyme concentration increased up to 10 µM
# Description: as §2, §4
# PtGSTU19Y160A [13] = target: T1, PtGSTU19Y160A; conditions: PtGSTU19 Y160A, peroxidase activity, mean ± S.D., n = 3
# Description: as §2, §3
# PtGSTU19Y160C [14] = target: T2, PtGSTU19Y160C; conditions: PtGSTU19 Y160C, peroxidase activity, mean ± S.D., n = 3
# Description: as §2, §3
# PtGSTU19Y160F [15] = target: T3, PtGSTU19Y160F; conditions: PtGSTU19 Y160F, peroxidase activity, mean ± S.D., n = 3
# Description: as §2, §3
# PtGSTU20C160Y [16] = target: T4, PtGSTU20C160Y; conditions: PtGSTU19 C160Y in Table S4, peroxidase activity, mean ± S.D., n = 3
# Description: as §2, §3
# [17] = PtGSTU19, 25°C, fixed 1 mM GSH (0.7 mM with HNE), mean ± S.D., n = 3
# [18] = 25°C, fixed 1 mM GSH (0.7 mM with HNE), mean ± S.D., n = 3
# [19] = read-out: ΔTd (denaturation temperature difference), PtGSTU19 20 µM, compound 100 µM, vs DMSO reference, flavonoid set (Table S3, Figure 4)
# [20] = read-out: ΔTd (denaturation temperature difference), PtGSTU19 apo form 20 µM, compound 100 µM, vs DMSO reference, first chemical library screen (Table S2, Figure S9)
# [21] = read-out: ΔTd (denaturation temperature difference), PtGSTU20 20 µM, compound 100 µM, vs DMSO reference, flavonoid set (Table S3, Figure 4)
# [22] = read-out: ΔTd (denaturation temperature difference), PtGSTU20 apo form 20 µM, compound 100 µM, vs DMSO reference, first chemical library screen (Table S2, Figure S9)
# [23] = read-out: ΔTd (denaturation temperature difference)
# [24] = peroxidase activity, 1 mM GSH, pH 8.0, mean ± S.D., n = 3
# [25] = read-out: apparent K m, peroxidase activity, 1 mM GSH, pH 8.0, mean ± S.D., n = 3
compound,measurement,setting,value
"S=C=NCc1ccccc1 [BITC, benzyl-isothiocyanate]",k cat,PtGSTU19Y160A [1],6.5 ± 0.2 s⁻¹
same,Km,PtGSTU19Y160A [1],0.0306 ± 0.0045 mM
same,k cat,PtGSTU19Y160C [2],6.7 ± 0.1 s⁻¹
same,Km,PtGSTU19Y160C [2],0.0541 ± 0.0033 mM
same,k cat,PtGSTU19Y160F [3],8.3 ± 0.2 s⁻¹
same,Km,PtGSTU19Y160F [3],0.0363 ± 0.0033 mM
same,k cat,PtGSTU20C160Y [4],4.9 ± 0.1 s⁻¹
same,Km,PtGSTU20C160Y [4],0.0714 ± 0.0096 mM
same,Catalytic efficiency,PtGSTU19 [5],132200 M⁻¹ s⁻¹
same,k cat,PtGSTU19 [5]; [17],7.0 ± 0.1 s⁻¹
same,k cat,PtGSTU20 [6]; [18],10.4 ± 0.3 s⁻¹
O=c1cc(-c2ccccc2)oc2cc(O)c(O)c(O)c12 [Baicalein],Ki,PtGSTU19 [7],35.2 ± 2.8 µM
same,Ki,PtGSTU20 [8],7.1 ± 0.6 µM
same,ΔTm at 100 µM,PtGSTU19 [9]; [19],0.73 ± 0.2 °C
same,ΔTm at 100 µM,PtGSTU19 [9]; [20],> 4 °C
same,ΔTm at 100 µM,PtGSTU20 [10]; [21],3.4 °C
same,ΔTm at 100 µM,PtGSTU20 [10]; [22],> 4 °C
O=[N+]([O-])c1ccc(Cl)c([N+](=O)[O-])c1 [CDNB],k cat,PtGSTU19Y160A [1],7.2 ± 0.9 s⁻¹
same,Km,PtGSTU19Y160A [1],7.04 ± 1.38 mM
same,k cat,PtGSTU19Y160C [2],14.0 ± 1.2 s⁻¹
same,Km,PtGSTU19Y160C [2],4.16 ± 0.62 mM
same,k cat,PtGSTU19Y160F [3],17.3 ± 1.0 s⁻¹
same,Km,PtGSTU19Y160F [3],3.67 ± 0.39 mM
same,k cat,PtGSTU20C160Y [4],0.59 ± 0.03 s⁻¹
same,Km,PtGSTU20C160Y [4],2.25 ± 0.229 mM
same,k cat,PtGSTU19 [5]; [17],28.8 ± 2.2 s⁻¹
same,k cat/K m,PtGSTU19 [5]; [17],8.9 ± 0.8 10^3 M^-1s^-1
same,Catalytic efficiency of PtGSTU19 relative to PtGSTU20,PtGSTU19 [5]; PtGSTU19 higher than PtGSTU20,30 times
same,Km,"PtGSTU19 [5]; read-out: apparent K m, PtGSTU19, 25°C, fixed 1 mM GSH (0.7 mM with HNE), mean ± S.D., n = 3",3.39 ± 0.502 mM
same,Catalytic efficiency,PtGSTU20 [6],300 M⁻¹ s⁻¹
same,k cat,PtGSTU20 [6]; [18],0.59 ± 0.03 s⁻¹
same,k cat/K m,PtGSTU20 [6]; [18],0.33 ± 0.01 10^3 M^-1s^-1
same,Km,"PtGSTU20 [6]; read-out: apparent K m, 25°C, fixed 1 mM GSH (0.7 mM with HNE), mean ± S.D., n = 3",1.78 ± 0.193 mM
O=c1cc(-c2ccccc2)oc2cc(O)cc(O)c12 [Chrysin],ΔTm at 100 µM,PtGSTU19 [9]; [23],-0.05 ± 0.07 °C
same,ΔTm at 100 µM,PtGSTU20 [10]; [23],2.07 °C
"CC(C)(OO)c1ccccc1 [CuOOH, cumene hydroperoxide]",Peroxidase activity (active on the peroxide),PtGSTU19 [11],weakly active
same,Catalytic efficiency,PtGSTU19 [11]; peroxidase activity,800 M⁻¹ s⁻¹
same,k cat,PtGSTU19 [11]; [24],0.17 ± 0.01 s⁻¹
same,k cat/K m,PtGSTU19 [11]; [24],0.85 ± 0.04 10^3 M^-1s^-1
same,Km,PtGSTU19 [11]; [25],197 ± 31.1 µM
same,Peroxidase activity (active on the peroxide),PtGSTU20 [12],weakly active
same,Catalytic efficiency,PtGSTU20 [12]; peroxidase activity,2400 M⁻¹ s⁻¹
same,k cat,PtGSTU20 [12]; [24],0.24 ± 0.01 s⁻¹
same,k cat/K m,PtGSTU20 [12]; [24],2.4 ± 0.1 10^3 M^-1s^-1
same,Km,PtGSTU20 [12]; [25],98.6 ± 15.4 µM
same,k cat,PtGSTU19Y160A [13],0.33 ± 0.02 s⁻¹
same,Km,PtGSTU19Y160A [13]; read-out: apparent KM,701 ± 82.7 µM
same,k cat,PtGSTU19Y160C [14],0.45 ± 0.03 s⁻¹
same,Km,PtGSTU19Y160C [14]; read-out: apparent KM,1.26 ± 0.14 mM
same,k cat,PtGSTU19Y160F [15],0.49 ± 0.01 s⁻¹
same,Km,PtGSTU19Y160F [15]; read-out: apparent KM,347 ± 34.6 µM
same,k cat,PtGSTU20C160Y [16],0.14 ± 0.01 s⁻¹
same,Km,PtGSTU20C160Y [16]; read-out: apparent KM,491 ± 97.5 µM
"N[C@@H](CCC(=O)N[C@@H](CS)C(=O)NCC(=O)O)C(=O)O [GSH, glutathione]",ΔTd (denaturation temperature difference),"PtGSTU19 [9]; PtGSTU19 apo form 20 µM, compound 100 µM, vs DMSO reference, first chemical library screen (Table S2, Figure S9)",little or no change
same,ΔTd (denaturation temperature difference),"PtGSTU20 [10]; PtGSTU20 apo form 20 µM, compound 100 µM, vs DMSO reference, first chemical library screen (Table S2, Figure S9)",little or no change
same,"apparent affinity for glutathione, reduced by a factor",PtGSTU19Y160F [3],4
same,variation of apparent affinity for glutathione,PtGSTU19Y160F [3],no variation
O=c1c(O)c(-c2ccccc2)oc2cc(O)cc(O)c12 [Galangin],Ki,PtGSTU19 [7]; read-out: K i,157 ± 28.7 µM
same,Ki,PtGSTU20 [8]; read-out: K i,43.8 ± 0.6 µM
same,ΔTm at 100 µM,"PtGSTU19 [9]; PtGSTU19 20 µM, compound 100 µM, vs DMSO reference, flavonoid set (Table S3, Figure 4), read-out: ΔTd (denaturation temperature difference)",1.59 ± 0.29 °C
same,ΔTd (denaturation temperature difference),"PtGSTU20 [10]; PtGSTU20 20 µM, compound 100 µM, vs DMSO reference, flavonoid set (Table S3, Figure 4), 100 µM",5.89 ± 0.64 °C
same,ΔTm at 100 µM,"PtGSTU20 [10]; PtGSTU20 20 µM, compound 100 µM, vs DMSO reference, flavonoid set (Table S3, Figure 4), read-out: ΔTd (denaturation temperature difference)",7.42 °C
"OO [H2O2, hydrogen peroxide]",Peroxidase activity (active on the peroxide),PtGSTU19 [11],not
same,Peroxidase activity (active on the peroxide),PtGSTU20 [12],not
"CCCCCC(O)C=CC=O (centres unmarked) [HNE, 4-hydroxy-2-nonenal]",Catalytic efficiency,PtGSTU19 [5],2000 M⁻¹ s⁻¹
O=c1c(O)c(-c2ccc(O)cc2O)oc2cc(O)cc(O)c12 [Morin],Ki,PtGSTU19 [7],72.9 ± 5.3 µM
same,Ki,PtGSTU20 [8],16 ± 0.9 µM
same,ΔTm at 100 µM,PtGSTU19 [9]; [19],0.37 ± 0.16 °C
same,ΔTm at 100 µM,PtGSTU19 [9]; [20],> 4 °C
same,ΔTm at 100 µM,PtGSTU20 [10]; [21],4.36 °C
same,ΔTm at 100 µM,PtGSTU20 [10]; [22],> 4 °C
